Laboratory results published in ChEMBL document CHEMBL3885881, “DrugMatrix”.
Where “and” joins values, the source holds several entries; their conditions need not be identical. Identical values can stand only once.

Species on record: Rattus norvegicus
Assay type: toxicity, organism-based, Sprague-Dawley
Details: in vivo, sc, 24 h, route mini-PUMP - SUBCUTANEOUS, vehicle 100 % SALINE; for ALANINE AMINOTRANSFERASE / ALBUMIN / ALKALINE PHOSPHATASE / ASPARTATE AMINOTRANSFERASE / BLOOD UREA NITROGEN / CARBON DIOXIDE / CHLORIDE / CHOLESTEROL / CREATINE PHOSPHOKINASE / CREATININE / GLUCOSE / LACTATE DEHYDROGENASE / PHOSPHORUS / POTASSIUM / SODIUM / TOTAL BILIRUBIN / TOTAL PROTEIN / URIC ACID / LIPASE: tissue Plasma
[1] = 0 mg/kg, vehicle control, tissue Blood, dose level Control, time 1 day
[2] = 0 mg/kg, vehicle control, dose level Control, time 1 day
[3] = 2 mg/kg, tissue Blood, dose level High, time 1 day
[4] = 2 mg/kg, dose level High, time 1 day
[5] = […], tissue Blood, dose 4.2 mg/Kg, dose level M1, time 1 day
[6] = […], dose 4.2 mg/Kg, dose level M1, time 1 day

Description: DrugMatrix - Regimen: Single

Structure (SMILES): CC(C)NCC(O)c1ccc(O)c(O)c1 (stereo not drawn) [ISOPROTERENOL]
- ABSOLUTE SEGMENTED NEUTROPHIL [1]: 1753.5 CELLS/uL
- BASOPHIL [1]: 0.4% and 0%
- EOSINOPHIL [1]: 0.3% and 0.17%
- ERYTHROCYTE COUNT [1]: 6.25 x10E6/uL and 5.64 x10E6/uL
- HEMATOCRIT [1]: 41.8% and 34.52%
- HEMOGLOBIN [1]: 13.33 G/DL and 12.68 G/DL
- LEUKOCYTE COUNT [1]: 11.55 x10E3/uL and 13 x10E3/uL
- LYMPHOCYTE [1]: 72.6% and 84.5%
- MEAN CORPUSCULAR HEMOGLOBIN [1]: 21.37 pg and 22.5 pg
- MONOCYTE [1]: 2.4% and 1.83%
- NEUTROPHIL [1]: 23.4% and 13.5%
- NUCLEATED RED BLOOD CELLS [1]: 0.17 /100WBC
- PLATELET COUNT [1]: 1265.33 x10E3/uL and 679.17 x10E3/uL
- ALANINE AMINOTRANSFERASE [2]: 40.33 u/L and 42.67 u/L
- ALBUMIN [2]: 3.63 G/DL and 3.77 G/DL
- ALKALINE PHOSPHATASE [2]: 385.33 u/L and 291.17 u/L
- ASPARTATE AMINOTRANSFERASE [2]: 79.33 u/L and 74.5 u/L
- BLOOD UREA NITROGEN [2]: 13.33 mg/dL and 15.33 mg/dL
- CARBON DIOXIDE [2]: 40.67 mmol/L and 30 mmol/L
- CHLORIDE [2]: 103 MEQ/L and 100.83 MEQ/L
- CHOLESTEROL [2]: 86.33 mg/dL and 65.33 mg/dL
- CREATINE PHOSPHOKINASE [2]: 190.33 u/L
- CREATININE [2]: 0.4 mg/dL and 0.15 mg/dL
- GLUCOSE [2]: 165.67 mg/dL and 179.83 mg/dL
- LACTATE DEHYDROGENASE [2]: 103.33 u/L and 162.67 u/L
- PHOSPHORUS [2]: 11.7 mg/dL and 12.2 mg/dL
- POTASSIUM [2]: 5.5 MEQ/L and 5.73 MEQ/L
- SODIUM [2]: 145 MEQ/L and 144.7 MEQ/L
- TOTAL BILIRUBIN [2]: 0.27 mg/dL and 0.15 mg/dL
- TOTAL PROTEIN [2]: 5.87 G/DL
- URIC ACID [2]: 1 mg/dL and 1.93 mg/dL
- ABSOLUTE BASOPHIL [3]: 13.3 cells/µL
- ABSOLUTE EOSINOPHIL [3]: 56.7 cells/µL
- ABSOLUTE LYMPHOCYTE [3]: 4960 cells/µL
- ABSOLUTE MONOCYTE [3]: 150 cells/µL
- BASOPHIL [3]: 0.2%
- EOSINOPHIL [3]: 0.83%
- ERYTHROCYTE COUNT [3]: 5.65 x10E6/uL
- HEMATOCRIT [3]: 36.77%
- HEMOGLOBIN [3]: 11.77 G/DL
- LEUKOCYTE COUNT [3]: 6.69 x10E3/uL
- LYMPHOCYTE [3]: 74.03%
- MEAN CORPUSCULAR HEMOGLOBIN [3]: 20.8 pg
- MEAN CORPUSCULAR HEMOGLOBIN CONCENTRATION [3]: 31.97 G/DL
- MEAN CORPUSCULAR VOLUME [3]: 65.1 fL
- MONOCYTE [3]: 2.3%
- NEUTROPHIL [3]: 22.1%
- PLATELET COUNT [3]: 1167.67 x10E3/uL
- ALANINE AMINOTRANSFERASE [4]: 33 u/L
- ALBUMIN [4]: 3.6 G/DL
- ALKALINE PHOSPHATASE [4]: 400 u/L
- ASPARTATE AMINOTRANSFERASE [4]: 86.67 u/L
- BLOOD UREA NITROGEN [4]: 14.67 mg/dL
- CARBON DIOXIDE [4]: 33 mmol/L
- CHLORIDE [4]: 106.67 MEQ/L
- CHOLESTEROL [4]: 105 mg/dL
- CREATINE PHOSPHOKINASE [4]: 281.33 u/L
- CREATININE [4]: 0.6 mg/dL
- GLUCOSE [4]: 99.33 mg/dL
- LACTATE DEHYDROGENASE [4]: 93 u/L
- LIPASE [4]: 24.67 u/L
- PHOSPHORUS [4]: 11.33 mg/dL
- POTASSIUM [4]: 5.6 MEQ/L
- SODIUM [4]: 146 MEQ/L
- TOTAL BILIRUBIN [4]: 0.2 mg/dL
- TOTAL PROTEIN [4]: 5.87 G/DL
- URIC ACID [4]: 0.93 mg/dL
- ABSOLUTE EOSINOPHIL [5]: 59.67 CELLS/uL
- ABSOLUTE LYMPHOCYTE [5]: 9880 CELLS/uL
- ABSOLUTE MONOCYTE [5]: 232.33 CELLS/uL
- ABSOLUTE SEGMENTED NEUTROPHIL [5]: 3561.33 CELLS/uL
- BASOPHIL [5]: 0%
- EOSINOPHIL [5]: 0.33%
- ERYTHROCYTE COUNT [5]: 5.17 x10E6/uL
- HEMATOCRIT [5]: 30.7%
- HEMOGLOBIN [5]: 11.47 G/DL
- LEUKOCYTE COUNT [5]: 13.73 x10E3/uL
- LYMPHOCYTE [5]: 71.67%
- MEAN CORPUSCULAR HEMOGLOBIN [5]: 22.2 pg
- MEAN CORPUSCULAR HEMOGLOBIN CONCENTRATION [5]: 37.33 G/DL
- MEAN CORPUSCULAR VOLUME [5]: 59.43 fL
- MONOCYTE [5]: 1.67%
- NEUTROPHIL [5]: 26.33%
- NUCLEATED RED BLOOD CELLS [5]: 0 /100WBC
- PLATELET COUNT [5]: 1159 x10E3/uL
- ALANINE AMINOTRANSFERASE [6]: 55.33 u/L
- ALBUMIN [6]: 3.73 G/DL
- ALKALINE PHOSPHATASE [6]: 326.67 u/L
- ASPARTATE AMINOTRANSFERASE [6]: 83 u/L
- BLOOD UREA NITROGEN [6]: 14 mg/dL
- CARBON DIOXIDE [6]: 28.67 mmol/L
- CHLORIDE [6]: 100.67 MEQ/L
- CHOLESTEROL [6]: 89.67 mg/dL
- CREATININE [6]: 0.13 mg/dL
- GLUCOSE [6]: 154 mg/dL
- LACTATE DEHYDROGENASE [6]: 126.67 u/L
- LIPASE [6]: 8.67 u/L
- PHOSPHORUS [6]: 14.57 mg/dL
- POTASSIUM [6]: 6.55 MEQ/L
- SODIUM [6]: 144.37 MEQ/L
- TOTAL BILIRUBIN [6]: 0.1 mg/dL
- TOTAL PROTEIN [6]: 6.03 G/DL
- URIC ACID [6]: 2.43 mg/dL
